According to US5079150A, “High sensitivity detection of peroxidase activity” (Becton, Dickinson and Company, priority 1988, dated 1992):

Legend:
Horseradish peroxidase = target: T1, Horseradish peroxidase (Armoracia rusticana, UniProt P00433); experiment: Comparison of substrates for HRP detection on membranes, reflectance densitometer; type: biochemical; settings: substrate 2 mg/mL, approximately three minutes
T1 sequence (P00433 31-353): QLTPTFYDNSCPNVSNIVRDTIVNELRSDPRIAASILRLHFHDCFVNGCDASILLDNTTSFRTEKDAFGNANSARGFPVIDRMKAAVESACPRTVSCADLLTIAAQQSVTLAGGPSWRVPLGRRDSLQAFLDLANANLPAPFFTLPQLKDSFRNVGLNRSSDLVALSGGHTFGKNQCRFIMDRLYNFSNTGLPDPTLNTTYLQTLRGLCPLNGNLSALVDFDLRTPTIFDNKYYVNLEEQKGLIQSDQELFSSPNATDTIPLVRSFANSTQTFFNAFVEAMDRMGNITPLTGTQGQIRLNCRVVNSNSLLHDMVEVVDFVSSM
Procedure: Horseradish peroxidase was diluted serially in 10-fold steps in a buffer containing 51 mM phosphate, 24 mM citrate, pH 5.0. Spot volumes of 1 μL of each stock were applied to either nitrocellulose (0.45 micron, Schleicher and Schuell) or IMMUNODYNE™ nylon immunoaffinity membrane (5 micron, Pall). The membranes were allowed to air dry and then immersed in filtered substrate solutions containing 2 mg/mL of substrate compound and 0.68 μL/mL of 30% hydrogen peroxide in citrate/phosphate buffer. The reaction was quenched after approximately three minutes with a water rinse. The colored spots were quantitated with a reflectance densitometer (Gretag model 183). The results are presented in Table II in arbitrary units of color density.

[1] = target: T2, HRP conjugated anti RSV monoclonal antibody (Armoracia rusticana, UniProt P00433); experiment: Sandwich immunoassay for RSV on IMMUNODYNE nylon membrane, HRP-labelled antibody, colored spot read with densitometer; type: biochemical, Horseradish; settings: for intensity of the colored spot (color density): substrate 2 mg/mL
T2 sequence (P00433 31-338 limits assumed): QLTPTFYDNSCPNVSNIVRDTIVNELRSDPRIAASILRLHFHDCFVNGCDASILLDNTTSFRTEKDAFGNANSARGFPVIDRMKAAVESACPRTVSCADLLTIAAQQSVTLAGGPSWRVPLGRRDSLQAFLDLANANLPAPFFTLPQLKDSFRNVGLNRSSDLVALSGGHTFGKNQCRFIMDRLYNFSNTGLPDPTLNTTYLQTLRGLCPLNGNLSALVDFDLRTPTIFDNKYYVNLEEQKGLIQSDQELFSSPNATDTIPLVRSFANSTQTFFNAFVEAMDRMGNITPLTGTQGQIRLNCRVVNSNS
Procedure: Ten μg of anti RSV antibody in 2 μl of carbonate buffer (50 mM, pH 9.5) were applied to an IMMUNODYNE™ nylon membrane with a micropipette. The membrane was incubated with a TRIS buffered solution of casein to block the remaining sites, and dried. The membrane was assembled into a device which allows liquids to be passed through the membrane and into an absorbent pad. Serial dilutions of a 300 ng stock of RSV infected HEp-2 cells were prepared in a buffer containing TRIS, sodium chloride, EDTA and a detergent. 150 μl of this material was passed through the membrane. Another antibody coated membrane was treated with 300 ng of uninfected cells as a control.
The membranes were washed with TRIS buffered saline (TBS) and incubated with HRP conjugated anti RSV monoclonal antibody in TRIS containing casein. After two washings with TBS buffer, the membranes were treated with citrate/phosphate buffered (pH 5.0) solutions of DAT and DAB (2 mg/mL) containing hydrogen peroxide. After a five minute incubation, the enzymatic reaction was stopped by the addition of TBS, and the intensity of the colored spots was compared using a densitometer (Model 183, Gretag Ltd., CH-8105 Regensdorf, Switzerland). The background control substracted results of this experiment are presented in Table 1 in arbitrary units of color density.

[2] = IMMUNODYNE nylon membrane, amount of HRP 30 pg
[3] = IMMUNODYNE nylon membrane, amount of HRP 0.3 ng
[4] = IMMUNODYNE nylon membrane, amount of HRP 3 ng
[5] = IMMUNODYNE nylon membrane, amount of HRP 30 ng
[6] = IMMUNODYNE nylon membrane, amount of HRP 0.3 mg
[7] = Nitrocellulose membrane, amount of HRP 30 pg
[8] = Nitrocellulose membrane, amount of HRP 0.3 ng
[9] = Nitrocellulose membrane, amount of HRP 3 ng
[10] = Nitrocellulose membrane, amount of HRP 30 ng
[11] = Nitrocellulose membrane, amount of HRP 0.3 mg
[12] = 11 ng of infected cells, pH 5.0, five minute incubation
[13] = 33 ng of infected cells, pH 5.0, five minute incubation
[14] = 100 ng of infected cells, pH 5.0, five minute incubation
[15] = 300 ng of RSV infected HEp-2 cells, pH 5.0, hydrogen peroxide, five minute incubation, background control subtracted
[16] = Control: 300 ng of uninfected cells, pH 5.0, five minute incubation

| SMILES | color density of spot (Horseradish peroxidase; [2]) | color density of spot (Horseradish peroxidase; [3]) | color density of spot (Horseradish peroxidase; [4]) | color density of spot (Horseradish peroxidase; [5]) | color density of spot (Horseradish peroxidase; [6]) | color density of spot (Horseradish peroxidase; [7]) | color density of spot (Horseradish peroxidase; [8]) | color density of spot (Horseradish peroxidase; [9]) | color density of spot (Horseradish peroxidase; [10]) | color density of spot (Horseradish peroxidase; [11]) | intensity of the colored spot (color density) [1, 12] | intensity of the colored spot (color density) [1, 13] | intensity of the colored spot (color density) [1, 14] | intensity of the colored spot (color density) [1, 15] | color reading on the densitometer, in words ([1]; 300 ng of infected cells) | intensity of the colored spot (color density) [1, 16] | amount of infected cells down to which stable, deeply colored spots well above control values were obtained ([1]; RSV infected HEp-2 cells) |
| --- | --- | --- | --- | --- | --- | --- | --- | --- | --- | --- | --- | --- | --- | --- | --- | --- | --- |
| Nc1cc(Cl)c(Cl)cc1N [4,5-Dichloro-1,2-phenylenediamine] | .00 arbitrary units | .00 arbitrary units | .10 arbitrary units | .41 arbitrary units | .48 arbitrary units | .02 arbitrary units | .10 arbitrary units | .31 arbitrary units | .43 arbitrary units | .60 arbitrary units |  |  |  |  |  |  |  |
| Cc1cc(N)c(N)cc1C [4,5-Dimethyl-1,2-phenylenediamine] | .00 arbitrary units | .05 arbitrary units | .22 arbitrary units | .50 arbitrary units | .53 arbitrary units | .03 arbitrary units | .11 arbitrary units | .22 arbitrary units | .43 arbitrary units | .55 arbitrary units |  |  |  |  |  |  |  |
| Nc1ccc(Cl)cc1N [4-Chloro-1,2-phenylenediamine] | .06 arbitrary units | .12 arbitrary units | .68 arbitrary units | 1.89 arbitrary units | 2.24 arbitrary units | .09 arbitrary units | .26 arbitrary units | .55 arbitrary units | .87 arbitrary units | 1.25 arbitrary units |  |  |  |  |  |  |  |
| Nc1ccc(-c2ccc(N)c(N)c2)cc1N [DAB, 3,3'-diaminobenzidine, reference compound] | .00 arbitrary units | .04 arbitrary units | .22 arbitrary units | .78 arbitrary units | 1.67 arbitrary units | .00 arbitrary units | .04 arbitrary units | .22 arbitrary units | .43 arbitrary units | 1.03 arbitrary units | .04 arbitrary units | .03 arbitrary units | .04 arbitrary units | .07 arbitrary units | barely perceptible color reading | 0 arbitrary units |  |
| Cc1ccc(N)c(N)c1 [DAT, 3,4 Diaminotoluene] | .04 arbitrary units | .21 arbitrary units | .54 arbitrary units | .85 arbitrary units | .99 arbitrary units | .03 arbitrary units | .09 arbitrary units | .10 arbitrary units | .28 arbitrary units | .38 arbitrary units | .28 arbitrary units | .37 arbitrary units | .57 arbitrary units | .82 arbitrary units |  | .24 arbitrary units | 33 ng |
| Cc1cc(-c2cc(C)c(N)c(C)c2)cc(C)c1N [TMB, 3,3',5,5'-tetramethylbenzidine, reference compound] | .00 arbitrary units | .00 arbitrary units | .11 arbitrary units | .19 arbitrary units | .23 arbitrary units | .01 arbitrary units | .04 arbitrary units | .08 arbitrary units | .09 arbitrary units | .09 arbitrary units |  |  |  |  |  |  |  |
